Measurements reported in patent US6967215B2, “Tetrahydrocarbazoles, a process for the preparation of those compounds, and the use thereof” (Ciba Specialty Chemicals Corporation, priority 2000, dated 2005).

What was measured:
Assay in all cases: MIC, microtitre dilution test (growth by optical density at 620 nm)
Format in all cases: cell-based
Settings in all cases: Table 5
[1] = system: Escherichia coli NCTC 8196
Method: (§1) Casein/soybean flour peptone bouillon for the preparation of pre-cultures of the test bacteria and yeast.
(§2) The test substances are predissolved in dimethyl sulfoxide (DMSO) and tested in a dilution series of 1:2.
(§3) Bacteria and yeast are cultured overnight in CASO bouillon, the mould is cultured overnight on mycological slant agar, and washed off with 10 ml of 0.85% sodium chloride solution (+0.1% TritonX-100).
(§4) All the test organisms are adjusted to an organism count of 1-5×10^6 CFU/ml using 0.85% sodium chloride solution.
(§5) The test substances are pre-pipetted into microtitre plates in an amount of 8 μl per well.
(§6) Pre-diluted organism suspensions are diluted 1:100 in CASO bouillon (bacteria and yeast) or Sabouraud 2% glucose bouillon (mould) and are added in an amount of 192 μl per well to the test substances.
(§7) The test batches are incubated for 48 hours at 37° C. (bacteria and yeast) or for 5 days at 28° C. (mould).
(§8) After incubation, the growth is evaluated by reference to the turbidity of the test batches (optical density) at 620 nm in a microplate reader.
(§9) The minimum inhibitory concentration (MIC value) is the concentration of substance at which (compared with the growth of the control) an appreciable inhibition of growth (≦20% growth) of the test organisms is ascertained.
(§10) One microtitre plate is used for each test organism and substance concentration. All the substances are tested in duplicate.

[2] = system: Staphylococcus hominis DMS 20328
Method: as §1, §2, §3, §4, §5, §6, §7, §8, §9, §10

P. aeruginosa = system: P. aeruginosa
Method: All the test organisms are adjusted to an organism count of 1-5×10^6 CFU/ml using 0.85% sodium chloride solution. The test substances are pre-pipetted into microtitre plates in an amount of 8 μl per well. Pre-diluted organism suspensions are diluted 1:100 in CASO bouillon (bacteria and yeast) or Sabouraud 2% glucose bouillon (mould) and are added in an amount of 192 μl per well to the test substances. The test batches are incubated for 48 hours at 37° C. (bacteria and yeast) or for 5 days at 28° C. (mould). After incubation, the growth is evaluated by reference to the turbidity of the test batches (optical density) at 620 nm in a microplate reader. The minimum inhibitory concentration (MIC value) is the concentration of substance at which (compared with the growth of the control) an appreciable inhibition of growth (≦20% growth) of the test organisms is ascertained. One microtitre plate is used for each test organism and substance concentration. All the substances are tested in duplicate.

[3] = system: Aspergillus niger ATCC 6175
Method: Nutrient: Mycological slant agar for the pre-culture of moulds [table] The test substances are predissolved in dimethyl sulfoxide (DMSO) and tested in a dilution series of 1:2. Bacteria and yeast are cultured overnight in CASO bouillon, the mould is cultured overnight on mycological slant agar, and washed off with 10 ml of 0.85% sodium chloride solution (+0.1% TritonX-100). All the test organisms are adjusted to an organism count of 1-5×10^6 CFU/ml using 0.85% sodium chloride solution. The test substances are pre-pipetted into microtitre plates in an amount of 8 μl per well. Pre-diluted organism suspensions are diluted 1:100 in CASO bouillon (bacteria and yeast) or Sabouraud 2% glucose bouillon (mould) and are added in an amount of 192 μl per well to the test substances. The test batches are incubated for 48 hours at 37° C. (bacteria and yeast) or for 5 days at 28° C. (mould). After incubation, the growth is evaluated by reference to the turbidity of the test batches (optical density) at 620 nm in a microplate reader. The minimum inhibitory concentration (MIC value) is the concentration of substance at which (compared with the growth of the control) an appreciable inhibition of growth (≦20% growth) of the test organisms is ascertained. One microtitre plate is used for each test organism and substance concentration. All the substances are tested in duplicate.

| Compound | MIC [ppm] E. coil [1] [ppm] | MIC [ppm] S. hominis [2] [ppm] | MIC [ppm] P. aeruginosa (P. aeruginosa) [ppm] | MIC [ppm] A. niger [3] [ppm] |
| --- | --- | --- | --- | --- |
| CCCN1CCC2c3c([nH]c4cccc(C(=O)OC)c34)C3C(=O)NC(=O)C3C2C1 (centres unmarked) [Compound 201] | >120 | >120 | 60 | >120 |
| CCCN1CCC2c3c([nH]c4cc(C)ccc34)C3C(=O)NC(=O)C3C2C1 (centres unmarked) [Compound 203] | >120 | >120 | >120 | >120 |
| CCCN1CCC2c3c([nH]c4cc(F)ccc34)C3C(=O)NC(=O)C3C2C1 (centres unmarked) [Compound 207] | >120 | >120 | 120 | >120 |
| CCCN1CCC2c3c([nH]c4c(F)cccc34)C3C(=O)NC(=O)C3C2C1 (centres unmarked) [Compound 211] | 120 | >120 | 120 | >120 |
| CCCN1CCC2c3c([nH]c4cc(C(F)(F)F)ccc34)C3C(=O)NC(=O)C3C2C1 (centres unmarked) [Compound 215] | 60 | 30 | 120 | >120 |
| CCCN1CCC2c3c([nH]c4cc(F)c(F)cc34)C3C(=O)NC(=O)C3C2C1 (centres unmarked) [Compound 219] | >120 | >120 | >120 | >120 |
| CCCN1CCC2c3c([nH]c4c(C)cccc34)C3C(=O)NC(=O)C3C2C1 (centres unmarked) [Compound 222] | 120 | 120 | >120 | >120 |
| CCCN1CCC2c3c([nH]c4cccc(Cl)c34)C3C(=O)NC(=O)C3C2C1 (centres unmarked) [Compound 224] | >120 | >120 | 120 | >120 |
